In the Kinase Knowledgebase extract (Sharma et al. 2016):
pIC50: −log10 of the molar value.

Target: MAPK14 (human) (UniProt Q16539)
Assay: Inhibition of MAPK14 Kinase Activity

MAPK14 (human), sequence (Q16539 whole entry, looked up): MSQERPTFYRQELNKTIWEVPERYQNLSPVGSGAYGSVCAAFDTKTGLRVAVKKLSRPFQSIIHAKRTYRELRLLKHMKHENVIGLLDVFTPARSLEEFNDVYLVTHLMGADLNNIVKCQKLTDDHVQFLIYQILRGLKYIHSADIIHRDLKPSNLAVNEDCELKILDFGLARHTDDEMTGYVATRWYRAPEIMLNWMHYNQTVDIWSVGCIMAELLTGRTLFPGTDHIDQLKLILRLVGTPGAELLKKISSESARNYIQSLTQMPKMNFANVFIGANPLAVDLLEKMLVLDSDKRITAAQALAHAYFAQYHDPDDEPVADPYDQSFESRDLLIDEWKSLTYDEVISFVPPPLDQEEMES

Row | Structure (SMILES) | pIC50
1 | Cc1c(NC(=O)Nc2cc(C(C)(C)C)nn2-c2ccc(F)cc2)sc(C(=O)NCc2ccncc2)c1Cl | > 4.82
2 | CC(C)(C)c1cc(NC(=O)Nc2ccc(C(=O)N3CCOCC3)s2)n(-c2ccc(F)cc2)n1 | > 4.82
3 | CCOC(=O)c1ccc(NC(=O)Nc2cc(C(C)(C)C)nn2-c2ccc(F)cc2)s1 | > 4.82
4 | Cc1c(NC(=O)Nc2cc(C(C)(C)C)nn2-c2ccc(F)cc2)sc(C(=O)N2CCN(C)CC2)c1Cl | > 4.82
5 | COC(=O)c1sc(NC(=O)Nc2cc(C(C)(C)C)nn2-c2ccc(F)cc2)c(C#N)c1C | > 4.82
6 | Cc1c(NC(=O)c2cc(F)cc(N3CCOCC3)c2)sc(C(=O)Nc2ccc(F)cc2)c1Cl | > 4.82
7 | COC(=O)c1sc(NC(=O)Nc2cc(C(C)(C)C)nn2-c2ccc(F)cc2)c(C)c1Cl | > 4.82
8 | Cc1c(NC(=O)c2ccc(F)cc2)sc(C(=O)Nc2ccc(F)cc2)c1Cl | > 4.82
9 | COC(=O)c1sc(NC(=O)c2cc(F)cc(N3CCOCC3)c2)c(C)c1Cl | > 4.82
10 | Cc1c(NC(=O)Nc2nnc(N3CCOCC3)s2)sc(C(=O)N2CCOCC2)c1Cl | > 4.82
11 | Cc1c(NC(=O)Nc2nnc(C3CCCCC3)s2)sc(C(=O)N2CCOCC2)c1Cl | > 4.82
12 | COC(=O)c1sc(NC(=O)c2ccc(F)cc2)c(C)c1C#N | > 4.82
13 | Cc1c(NC(=O)Nc2cc(C(C)(C)C)nn2-c2ccc(F)cc2)sc(C(=O)N2CCOCC2)c1Cl | > 4.82
14 | Cc1cc(NC(=O)c2cc(F)cc(N3CCOCC3)c2)sc1C(=O)N1CCOCC1 | > 4.82
15 | Cc1c(NC(=O)c2cc(F)cc(N3CCOCC3)c2)sc(C(=O)N2CCOCC2)c1Cl | > 4.82
16 | Cc1c(NC(=O)c2ccc(F)cc2)sc(C(=O)N2CCOCC2)c1Cl | > 4.82
17 | Cc1c(NC(=O)Nc2cc(C(C)(C)C)nn2-c2ccc(F)cc2F)sc(C(=O)N2CCOCC2)c1Cl | > 4.82
